Target: T1, ChTS (Cryptosporidium parvum, UniProt Q27552)
T1 sequence (Q27552 1-521): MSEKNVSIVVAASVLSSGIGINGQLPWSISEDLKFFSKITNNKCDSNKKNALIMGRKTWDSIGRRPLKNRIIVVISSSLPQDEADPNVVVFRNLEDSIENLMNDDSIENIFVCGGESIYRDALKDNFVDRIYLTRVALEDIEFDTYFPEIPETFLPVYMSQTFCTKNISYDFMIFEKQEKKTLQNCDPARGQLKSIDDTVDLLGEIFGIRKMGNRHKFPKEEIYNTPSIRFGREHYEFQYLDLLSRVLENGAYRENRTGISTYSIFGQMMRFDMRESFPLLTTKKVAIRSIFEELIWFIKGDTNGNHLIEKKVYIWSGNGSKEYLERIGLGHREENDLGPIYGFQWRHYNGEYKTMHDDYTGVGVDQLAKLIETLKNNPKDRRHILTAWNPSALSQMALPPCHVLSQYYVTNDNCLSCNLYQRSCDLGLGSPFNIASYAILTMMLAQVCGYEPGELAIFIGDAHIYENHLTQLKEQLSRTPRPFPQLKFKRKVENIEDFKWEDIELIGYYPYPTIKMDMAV
Type: biochemical
Settings: ChTS IC50 compared to compound 2

Molecule | loss (decrease) of potency | increase (enhancement) in potency [fold]
Nc1nc2[nH]cc(Cc3ccc(C(=O)Nc4cccc(C(=O)O)c4)cc3)c2c(=O)[nH]1 [Compound 3, 3-(4-((2-amino-4-oxo-4,7-dihydro-3H-pyrrolo[2,3-d]pyrimidin-5-yl)methyl)benzamido)benzoic acid] | ~ 5 fold | –
Nc1nc2[nH]cc(Cc3ccc(C(=O)Nc4ccc(C(=O)O)cc4)cc3)c2c(=O)[nH]1 [Compound 4, 4-(4-((2-amino-4-oxo-4,7-dihydro-3H-pyrrolo[2,3-d]pyrimidin-5-yl)methyl)benzamido)benzoic acid] | ~ 5 fold | –
Nc1nc2[nH]cc(Cc3ccc(C(=O)Nc4ccccc4CCC(=O)O)cc3)c2c(=O)[nH]1 [Compound 6, 3-(2-(4-((2-amino-4-oxo-4,7-dihydro-3H-pyrrolo[2,3-d]pyrimidin-5-yl)methyl)benzamido)phenyl) propanoic acid] | ~ 6 fold | –
CN(C(=O)c1ccc(Cc2c[nH]c3nc(N)[nH]c(=O)c23)cc1)c1ccccc1C(=O)O [Compound 9, 2-(4-((2-amino-4-oxo-4,7-dihydro-3H-pyrrolo[2,3-d]pyrimidin-5-yl)methyl)-N-methylbenzamido) benzoic acid] | ~ 11 fold | –
Nc1nc2[nH]cc(Cc3ccc(/C=C/c4ccccc4C(=O)O)cc3)c2c(=O)[nH]1 [Compound 10, (E)-2-(4-((2-amino-4-oxo-4,7-dihydro-3H-pyrrolo[2,3-d]pyrimidin-5-yl)methyl)styryl)benzoic acid] | greater than 5 fold | –
Nc1nc2[nH]cc(Cc3ccc(C(=O)NCc4ccccc4C(=O)O)cc3)c2c(=O)[nH]1 [Compound 11, 2-((4-((2-amino-4-oxo-4,7-dihydro-3H-pyrrolo[2,3-d]pyrimidin-5-yl)methyl)benzamido)methyl) benzoic acid] | 6 fold | –
Nc1nc2[nH]cc(Cc3ccc(C(=O)N4CCCCC4C(=O)O)cc3)c2c(=O)[nH]1 (stereo not shown) [Compound 12, 1-(4-((2-amino-4-oxo-4,7-dihydro-3H-pyrrolo[2,3-d]pyrimidin-5-yl)methyl)benzoyl) piperidine-2-carboxylic acid] | greater than 25 fold | –
Nc1nc2[nH]cc(Cc3ccc(C(=O)NC4CCCCC4C(=O)O)cc3)c2c(=O)[nH]1 (stereo not shown) [Compound 13, 2-(4-((2-amino-4-oxo-4,7-dihydro-3H-pyrrolo[2,3-d]pyrimidin-5-yl)methyl)benzamido)cyclohexan-1-carboxylic acid] | 3 fold | –
COc1ccc(C(=O)O)c(NC(=O)c2ccc(Cc3c[nH]c4nc(N)[nH]c(=O)c34)cc2)c1 [Compound 16, 2-(4-((2-amino-4-oxo-4,7-dihydro-3H-pyrrolo[2,3-d]pyrimidin-5-yl)methyl)benzamido)-4-methoxy benzoic acid] | ~ 2.5 fold | –
N#Cc1ccc(C(=O)O)c(NC(=O)c2ccc(Cc3c[nH]c4nc(N)[nH]c(=O)c34)cc2)c1 [Compound 17, 2-(4-((2-amino-4-oxo-4,7-dihydro-3H-pyrrolo[2,3-d]pyrimidin-5-yl)methyl)benzamido)-4-cyanobenzoic acid] | – | 2
Nc1nc2[nH]cc(Cc3ccc(C(=O)Nc4cc(CO)ccc4C(=O)O)cc3)c2c(=O)[nH]1 [Compound 18, 2-(4-((2-amino-4-oxo-4,7-dihydro-3H-pyrrolo[2,3-d]pyrimidin-5-yl)methyl)benzamido)-4-(hydroxymethyl)benzoic acid] | ~ 9 fold | –
COCc1ccc(C(=O)O)c(NC(=O)c2ccc(Cc3c[nH]c4nc(N)[nH]c(=O)c34)cc2)c1 [Compound 19, 2-(4-((2-amino-4-oxo-4,7-dihydro-3H-pyrrolo[2,3-d]pyrimidin-5-yl)methyl)benzamido)-4-(methoxymethyl)benzoic acid] | ~ 3.5 fold | –
COCc1cccc(C(=O)O)c1NC(=O)c1ccc(Cc2c[nH]c3nc(N)[nH]c(=O)c23)cc1 [Compound 21, 2-(4-((2-amino-4-oxo-4,7-dihydro-3H-pyrrolo[2,3-d]pyrimidin-5-yl)methyl)benzamido)-3-(methoxymethyl)benzoic acid] | greater than 5 fold | –
COc1ccc(NC(=O)c2ccc(Cc3c[nH]c4nc(N)[nH]c(=O)c34)cc2)c(C(=O)O)c1 [Compound 22, 2-(4-((2-amino-4-oxo-4,7-dihydro-3H-pyrrolo[2,3-d]pyrimidin-5-yl)methyl)benzamido)-5-methoxybenzoic acid] | greater than 5 fold | –
COCCOc1cc(OC)cc(-c2ccc(Cc3c[nH]c4nc(N)[nH]c(=O)c34)cc2)c1 [Compound 26, 2-amino-5-((3’-methoxy-5’-(2-methoxyethoxy)-[1,1’-biphenyl]-4-yl)methyl)-3,7-dihydro-4H-pyrrolo [2,3-d]pyrimidin-4-one] | ~ 5 fold | –
COc1cc(C(=O)O)cc(-c2ccc(Cc3c[nH]c4nc(N)[nH]c(=O)c34)cc2)c1 [Compound 27, 4’-((2-amino-4-oxo-4,7-dihydro-3H-pyrrolo[2,3-d]pyrimidin-5-yl)methyl)-5-methoxy-[1,1’-biphenyl]-3-carboxylic acid] | greater than 25 fold | –

Same assay, conditions: compared to compound 2

Molecule | change in ChTS potency (in words)
Nc1nc2[nH]cc(Cc3ccc(C(=O)Nc4ccccc4CC(=O)O)cc3)c2c(=O)[nH]1 [Compound 5, 2-(2-(4-((2-amino-4-oxo-4,7-dihydro-3H-pyrrolo[2,3-d]pyrimidin-5-yl)methyl)benzamido)phenyl) acetic acid] | small increase in potency
Nc1nc2[nH]cc(Cc3ccc(C(=O)Nc4cc(Cl)ccc4C(=O)O)cc3)c2c(=O)[nH]1 [Compound 14, 2-(4-((2-amino-4-oxo-4,7-dihydro-3H-pyrrolo[2,3-d]pyrimidin-5-yl)methyl)benzamido)-4-chloro benzoic acid] | small loss of potency

System: ChTS over the hTS enzyme
Settings: inhibition activity; cited from earlier work

Molecule | selectivity for the ChTS over the hTS enzyme [fold]
2-amino-4-oxo-4,7-dihydro-pyrrolo[2,3-d]pyrimidin-methyl-phenyl-L-glutamic acid [Compound 1] | 6

From publication PMC6829050 (European journal of medicinal chemistry, 2019)
